Key:
[1] = target: FYNα (Homo sapiens, UniProt P06241); experiment: FYNα kinase assay, LANCE Ultra TR-FRET; assay type: biochemical; details: mean ± SD of at least three independent determinations; ATP near Km; read-out: Fyn IC50
Description: GSK-3β and FYNα kinase assays were run in 384-well microplates (OptiPlate-384, White, PerkinElmer) in a total reaction volume of 20 μL. The inhibitory potency against human recombinant GSK-3β and FYNα (Carna Biosciences) was evaluated using the LANCE Ultra (PerkinElmer) time-resolved fluorescence resonance energy transfer (TR-FRET) by measuring the phosphorylation of the ULight-labeled substrate, according to the manufacturer’s instructions. The synthetic peptide surrounding Ser641 of human muscle glycogen synthase (ULight-GS (Ser641/pSer657)) and the synthetic 28-amino acid peptide containing eight Tyr residues placed in different amino acid contexts (ULightTM-TK (PT66)) were selected as specific substrates for GSK-3β and FYNα, respectively. Briefly, test compounds and staurosporine (reference compound) or DMSO (control) are mixed with the enzyme (GSK-3β: 2 nM and FYNα: 1 nM) in a buffer containing 50 mM HEPES (pH 7.5), 1 mM EGTA, 10 mM MgCl2, 2 mM DTT, and 0.01% Tween-20. […] Following incubation, the reaction is stopped by adding 6 mM EDTA. After 5 min, the antiphospho antibody labeled with europium chelate is added. After 1 more hour, the kinase reaction is monitored by irradiation at 320 nm and the fluorescence measured at 615 and 665 nm, using EnVision 2014 Multilabel Reader (PerkinElmer). The calculated signal ratio at 665/615 nm is proportional to the extent of ULight-substrate phosphorylation. The compounds were tested at 11 different concentrations ranging from 3 nM up to 100 μM in triplicate. […] The results were expressed as a percent inhibition of the control enzyme activity.
Dose–response curves were run in at least three independent experiments, performed in three technical replicates. IC50 values (concentrations causing half-maximal enzyme inhibition) were determined by nonlinear regression analysis of the Log[concentration]/response curves generated with mean replicate values using a four parameter Hill equation curve fitting with GraphPad Prism 8 (GraphPad Software Inc., CA-USA).

[2] = test system: primary rat cerebellar granule neurons (CGNs); experiment: Neurotoxicity, cell viability in CGNs (MTT); assay type: cell-based; details: 5, 10, and 25 μM, 24 h
Description: A preliminary cell viability assessment was conducted in primary rat cerebellar granule neurons (CGNs), which are considered a reliable model for studying cellular and molecular mechanisms of survival/apoptosis and neurodegeneration/neuroprotection.
Primary cerebellar granule cells were dissociated from cerebella and plated on 96-well plates, previously coated with 10 μg/mL poly-L-lysine, at a density of 1.2 × 10^5 cells/0.2 mL medium/well in BME supplemented with 10% heat-inactivated FBS (Life Technologies), 2 mmol/L glutamine, 100 μmol/L gentamicin sulfate, and 25 mM KCl (all from Sigma-Aldrich). Sixteen hours later, 10 μM cytosine arabinofuranoside (Sigma-Aldrich) was added to avoid glial proliferation. After 7 days in vitro, differentiated neurons were shifted to serum-free BME medium and exposed to increasing concentrations (5 μM, 10 μM, 25 μM) of compounds of interest for 24 h. Then, cell viability was evaluated through the MTT assay.

[3] = test system: primary rat cerebellar granule neurons (CGNs); experiment: Neuroprotection in CGNs, serum/potassium deprivation (MTT); assay type: cell-based; details: 5, 10, and 25 μM, 48 h
Description: First, we evaluated the neuroprotective properties of the selected compounds in the same cell line, once the expression of Fyn and GSK-3β in this cellular model was verified (Figure S2), after a serum/potassium deprivation experiment, which simulates physiological aging (and mortality), triggering around 20% of cell death. In particular, 7 days differentiated CGNs were exposed to serum-free BME medium with low extracellular concentration of K^+ ions and treated at selected doses (i.e., 5, 10, and 25 μM) of compounds for 48 h. Neuronal viability was then determined with an MTT assay.
To evaluate the neuroprotective effect of our compounds, we tested increasing concentrations (5 μM, 10 μM, 25 μM) of compounds of interest in differentiated CGNs switched to serum-free BME medium with 5 mM KCl (serum-potassium deprivation) for 48 h to mimic in vitro the naturally occurring death of granule cells. Neuroprotection was evaluated through MTT assay.
For MTT assay, thiazolyl blue was added to the culture medium at a final concentration of 0.1 mg/mL. Following a 20 min incubation at 37 °C in the dark, the MTT precipitate was dissolved in 0.1 M Tris–HCl pH 7.5 buffer containing 5% Triton X-100 (all from Sigma-Aldrich) and absorbance was read at 570 nm in a microplate spectrophotometric reader (Bio-Rad).

[4] = test system: neurospheres (NPCs from the subventricular zone); experiment: Neurosphere growth analysis (NPC proliferation); assay type: cell-based, mice; details: 0.1, 1, and 5 μM; 7 days
Description: Based on that, we further investigated the neurogenic and differentiation potential of our kinase inhibitors in cell culture of neurospheres, which are floating pools of NPCs coming from the subventricular zone (SVZ) of six-month-old mice. Particularly, we first analyzed the variation, during 7 days, in number and size of neurosphere population with and without treatment.
To investigate the effect of compounds of interest in neurospheres’ growth rate, single spheres were plated in suspension in 96-well plates (5 × 10^3 cells/well) in the presence of compounds (0.1 μM, 1 μM, and 5 μM) in complete DMEM F-12 culture medium. One image/well was acquired every day by using the Sartorius Incucyte Live-Cell Analysis System and evaluated through the Brightfield Spheroid Analysis Software Module. Only aggregates with areas larger than 400 μm^2 were considered for statistical analysis.

[5] = test system: neurospheres (NPCs from the subventricular zone); experiment: Neurosphere differentiation, immunofluorescence of DCX, GFAP, OLIG2; assay type: cell-based, mice; details: 1 μM; 7 days
Description: Lastly, we move forward to evaluate the neuromodulatory profile of selected compounds that involves the capability to polarize the spontaneous differentiation of neurospheres, which potentially can maturate in neurons or macroglia, such as astrocytes and oligodendrocytes. Modulating NPC differentiation is especially relevant under neurodegenerative conditions as it could offer an intriguing opportunity to achieve polyhedric therapeutic effects. Importantly, neuronal differentiation may help to counteract the progressive neuronal loss, while promoting oligodendrocyte phenotype could support remyelination and neuronal function and the astrocytic polarization may aid to foster a neuroprotective profile. Particularly, after 7 days of treatment at 1 μM, in the same experimental conditions previously reported, cells were fixed and stained with different antibody markers such as doublecortin (DCX) for the immature neurons, glial fibrillary acidic protein (GFAP) for astrocytes, and oligodendrocyte transcription factor 2 (OLIG2) for oligodendrocyte precursors for immunofluorescence analysis (Figure a). […] By driving the maturation of astrocytes, compounds 41 and 43 could exert neuroprotection through multiple mechanisms, including the secretion of neurotrophic factors, enhancement of antioxidant defenses, regulation of water balance, ion homeostasis, and glutamate buffering and recycling. Furthermore, astrocytes support the integrity of the blood–brain barrier (BBB) and aid in the refinement of neural networks via synaptic pruning, further reinforcing their role in preserving brain function and structure.
NSCs were initially obtained by SVZ microdissection of 6 months-old C57BL/6N wild-type male mice (Mus musculus) and routinely cultured in suspension in DMEM-F12 (Gibco; ThermoFisher Scientific, Waltham, MA, USA) supplemented with 2 mM glutamine, 10 μg/mL insulin from bovine pancreas (Sigma-Aldrich; St Louis, MO, USA), 20 ng/mL epidermal growth factor (EGF; PeproTech EC, London, UK), 20 ng/mL fibroblast growth factor-2 (FGF2; PeproTech), 1% N2 (ThermoFisher Scientific), 1% B27 (ThermoFisher Scientific), 10 units/mL penicillin, and 10 μg streptomycin.
To assess the effect of compounds of interest in NSCs differentiation, 30 spheres were plated on 13 mm glass coverslips, previously coated with Matrigel matrix (Corning; New York, USA), in complete DMEM F-12 medium, and treated with 1 μM of compounds of interest. After 7DIV, neurospheres were fixed for 20 min with 4% PFA in PBS 0.1% pH 7.4. Fixed neurospheres were permeabilized in 0.1% Triton/PBS and nonspecific sites were blocked for 1 h with 0.1% Triton/PBS and 5% normal goat serum (Sigma-Aldrich; St Louis, MO, USA). Cells were then incubated overnight at 4 °C with the following primary antibodies: Anti-Doublecortin DCX (Abcam, Cambridge, UK), GFAP (Dakopatts), OLIG2 (Santa Cruz Biotechnology), 1:500 dilution in 0.1% Triton/PBS with 2% normal goat serum. After 3 washes in 0.1% Triton/PBS, specific secondary antibodies were added for 2 h at RT in the dark: Donkey anti-Mouse IgG Alexafluor 555 (Abcam, Cambridge, UK), Goat anti-Rabbit IgG Alexafluor 555 (Abcam, Cambridge, UK), 1:1000 dilution in 0.1% Triton/PBS with 2% normal goat serum. Following 3 washes in 0.1% Triton/PBS, nuclei were stained with DAPI (2 μg/mL, Sigma-Aldrich) for 5 min. Glass coverslips were mounted by using Ultracruz Aqueous Mounting Medium with DAPI (Santa Cruz Biotechnology). Neurospheres confocal images were obtained with a Nikon EZ-C1 microscope (60× objective) and the z-stack function (1024 steps and 1 μm thickness layers; 40 total stacks). 3D image reconstruction was performed by using Fiji ImageJ2 software, z-project plugin, and selecting the sum stacks’ function. Fluorescence intensity index was estimated as the ratio of markers’ positive cells intensity/total cells fluorescence intensity stained with DAPI per ROI.

[6] = BBB permeability in hCMEC/D3 transwell model; details: human
Description: (§1) To this aim, the immortalized human brain endothelial cell line (hCMEC/D3) was used since it mimics the brain endothelium-restricted permeability and expresses most of the transporters and receptors present in vivo, constituting a valuable in vitro model of the human BBB crossing system.
(§2) BBB permeability assay was conducted as described in Albertini et al. The brain microvascular endothelial cells (hCMEC/D3) were seeded at the density of 5 × 10^4 cells per cm^2 in the upper compartment of Transwell filters (polyester, pore size 0.4 μm, 12-well tissue culture transwell; Corning), precoated with rat tail collagen type I (0.1 mg/mL; Roche). They were grown for 7 days up to confluence in Endothelial Cell Growth Medium 2 (Promocell), supplemented with penicillin/streptomycin 100 U/mL, in a humidified, 5% CO2 incubator at 37 °C. Confluent monolayers were washed in prewarmed HBSS buffer, and the selected compounds were added to the apical (AP) side at a concentration of 100 μM. […] Samples (100 μL) were collected from the BL side at different time points (15, 30, 60, and 90 min) and then replaced with the corresponding volume of HBSS buffer. […] The concentration of compounds was determined using a Ultimate 3000 HPLC system (ThermoFisher) with UV–vis detection at the maximum absorption wavelength of each compound except for inulin as determined by a spectrophotometric method using a Tecan Sunrise absorbance microplate reader. […] The permeability coefficient (Papp) was calculated as follows: Papp = (ΔQ/Δt)/(C [donor] × A), where ΔQ/Δt represents the permeation rate (mol/s), C [donor] is the initial compound concentration in the donor compartment at time 0 (mol/cm^3), and A represents the surface area of the filter (1.12 cm^2).

[7] = test system: immortalized murine microglia N9; experiment: Immunomodulation in LPS-treated N9 microglia, Western blot of iNOS and TREM2; details: 2.5 and 5 μM; 100 ng/mL LPS, 24 h
Description: To gain a conclusive answer on the potential role of these kinase inhibitors in counteracting neuroinflammatory processes, after the verified induced astrocytic polarization, the ability of selected compounds to modulate inflammatory response was analyzed by favoring the immunomodulatory switch from neurotoxic M1 phenotype of microglia to phagocytic and neuroprotective M2 phenotype, evaluating inducible nitric oxide synthase (iNOS) and TREM2 as M1 and M2 markers (Figure ).
The microglial phenotype was evaluated through Western blot analysis of the pro-inflammatory iNOS and anti-inflammatory-TREM2 markers.

[8] = test system: immortalized human brain endothelial cell line (hCMEC/D3); experiment: BBB permeability in hCMEC/D3 transwell model; details: 100 μM apical; ± SE
Description: as §1, §2

Chain of FYNα (P06241 whole entry): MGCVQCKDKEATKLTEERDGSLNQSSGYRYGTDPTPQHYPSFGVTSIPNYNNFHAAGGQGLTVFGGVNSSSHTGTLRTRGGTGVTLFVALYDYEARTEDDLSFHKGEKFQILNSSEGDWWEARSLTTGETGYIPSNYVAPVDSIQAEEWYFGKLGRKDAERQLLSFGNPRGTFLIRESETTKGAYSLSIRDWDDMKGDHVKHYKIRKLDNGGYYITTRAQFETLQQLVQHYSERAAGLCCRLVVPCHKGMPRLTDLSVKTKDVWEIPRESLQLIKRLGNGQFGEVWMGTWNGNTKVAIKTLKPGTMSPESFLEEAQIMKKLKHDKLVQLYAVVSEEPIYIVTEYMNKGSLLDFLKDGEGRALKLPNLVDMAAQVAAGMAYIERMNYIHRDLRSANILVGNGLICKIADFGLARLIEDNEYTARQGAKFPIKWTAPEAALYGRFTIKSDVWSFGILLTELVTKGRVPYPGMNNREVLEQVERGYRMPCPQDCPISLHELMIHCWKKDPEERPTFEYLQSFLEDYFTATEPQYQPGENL

With `Br.Clc1cc(CNc2nc(-c3c[nH]c4ncccc34)cs2)ccn1` [Compound 28, N-((2-Chloropyridin-4-yl)methyl)-4-(1H-pyrrolo[2,3-b]pyridin-3-yl)thiazol-2-amine Hydrobromide] the IC50 [1] was 710 ± 90 nM, the “Increase in registered cell viability in comparison to control” value [2] was “amplified” and the “Neurotoxicity on CGNs (cell viability compared to control)” value [2] was “not neurotoxic”. The “Neuroprotection on CGNs (cell viability after serum/potassium deprivation)” value [3] was “mitigate the physiological senescence and mortality rate”, the “Neurosphere dimension (brightfield object total area), maturation” value [4] was “noticeable maturation at days 6 and 7” and the “Neurosphere number (object count per image), neurogenesis” value [4] was “pronounced neurogenesis”. The “Differentiation toward oligodendrocytes (OLIG2)” value [5] was “this effect was mitigated”, the Papp A→B at 90 min, 100 μM [6] was 12.4 ± 1.13 ×10⁻⁶ cm/s and the “TREM2 expression (M2 marker) vs LPS” value [7] was “no significant variations”. The “iNOS expression (M1 marker) vs LPS” value [7] was “notably decreased the M1 marker at both tested concentrations”.
In the case of inulin [reference compound], the “Permeability coefficient Papp” value [8] is reported as 6.74± 1.7 10-6 cm/s.

Source: publication PMC12406253, “Exploration of the Neuromodulatory Properties of Fyn and GSK-3β Kinases Exploiting 7‑Azaindole-Based Inhibitors” (Journal of Medicinal Chemistry, 2025)
